Assay results taken from patent US11920126B2, “Bio-manufacturing process” (priority 2018, dated 2024).

Columns and labels:
Trichoderma = test: Trichoderma-loaded feedstocks co-cultured with engineered Streptomyces; assay type: cell-based; details: feedstocks loaded with Trichoderma spores, no production fungus
Protocol: The efficacy of inhibitory properties was tested in feedstocks without the addition of the fungus. Feedstocks were loaded with Trichoderma spores, a common mold contaminate. Engineered Streptomyces was then co-cultured in these contaminated feedstocks, and the inhibitory effects were recorded.

Ascomycete contaminants = test: natamycin inhibition, in vitro liquid media culture; assay type: cell-based; details: cultured in vitro (liquid media)
Source text: Streptomyces natalensis naturally produces low levels of pimaricin, also known as natamycin, which is a fungicide with the ability to bind to sterols found in fungal cell membranes, thus making the cell wall permeable and lysing the cell. This fungicide has greater activity against Ascomycete contaminants, versus production fungi Ganoderma or Trametes. Natamycin's affinity for non-basidiomycetes species make this particular antifungal an attractive target for expression during cultivated manufacturing.
By up-regulating the expression of pimM, the total yield of natamycin produced by our Streptomyces natalensis strains was increased. In this respect, natamycin production in wild type Streptomyces natalensis […] the effective range of inhibition (5 ug/mL) when cultured in vitro (liquid media). […] Engineering a bacterium strain with increased natamycin potency helps to reduce the bacterial loading needed for substrate bioburden mitigation, thus further reducing process and material cost.

C[C@@H]1C/C=C/C=C/C=C/C=C/[C@H](O[C@@H]2O[C@H](C)[C@@H](O)[C@H](N)[C@@H]2O)C[C@@H]2O[C@](O)(C[C@@H](O)C[C@H]3O[C@@H]3/C=C/C(=O)O1)C[C@H](O)[C@H]2C(=O)O [natamycin]
inhibitory effect of Trichoderma in feedstocks as a function of natamycin expression (Trichoderma): strong linear inhibitory effect
effective range of inhibition (Ascomycete contaminants): 5 µg/mL
